According to ChEMBL document CHEMBL2434849, “The development of bis(hydroxymethyl)pyrrole analogs as bifunctional DNA cross-linking agents and their chemotherapeutic potential” (Eur J Med Chem, 2013):

Columns and labels:
PC-3 = test: Cytotoxicity against human PC3 cells; format: functional, cell-based
[1] = Cytotoxicity against human H460 cells; format: functional, cell-based; conditions: NCI-H460
MCF7 = test: Cytotoxicity against human MCF7 cells; format: functional, cell-based
HL-60 = test: Cytotoxicity against human HL60 cells; format: functional, cell-based
P388 [2] = test: Antitumor activity against mouse P388 cells graft model at 7.5 mg/kg, ip qd for 5 days; format: functional; conditions: route intraperitoneal
B16 = test: Antitumor activity against mouse B16 cells graft model at 12.5 mg/kg, ip qd for 9 days; format: functional; conditions: route intraperitoneal
P388 [3] = test: Antitumor activity against mouse P388 cells assessed as increase in life span of host; format: functional

Structure (SMILES) | IC50 [1] | IC50 (MCF7) | IC50 (HL-60) | other results
CCNC(=O)OCc1c(COC(=O)NCC)c(-c2ccc(OC)cc2)n2c1Cc1ccccc1-2 | 13.2 µM | 25.9 µM | – | IC50 (PC-3): 30.2 µM
COc1ccc(-c2c(COC(=O)NC(C)C)c(COC(=O)NC(C)C)c3n2-c2ccccc2C3)cc1 | 20.3 µM | 34.2 µM | – | IC50 (PC-3): 23.2 µM
CC(C)NC(=O)OCc1c(COC(=O)NC(C)C)c(-c2ccc(Cl)c(Cl)c2)n2c1CCC2 | – | – | 1.5 µM | –
COc1ccc2c(c1)CCn1c(C)c(COC(=O)NC(C)C)c(COC(=O)NC(C)C)c1-2 | – | – | – | T/C (P388 [2]): 232%; T/C (B16): 180%
CC(C)NC(=O)OCc1c(COC(=O)NC(C)C)c(-c2ccc(F)cc2)n2c1SCC2 | – | – | 1.6 µM | –
Cc1c(COC(=O)NC(C)C)c(COC(=O)NC(C)C)c2n1CS(=O)(=O)C2 | – | – | – | Activity (P388 [3]): 118%
CC(C)NC(=O)OCc1c(COC(=O)NC(C)C)c(-c2ccc(Cl)cc2)n2c1SCC2 | – | – | 0.85 µM | –
CC(C)NC(=O)OCc1c(COC(=O)NC(C)C)c(-c2ccccc2)n2c1SCC2 | – | – | 1.5 µM | –
CNC(=O)OCc1c(COC(=O)NC)c(-c2ccc(OC)cc2)n2c1Cc1ccccc1-2 | 82.1 µM | 20 µM | – | –
